In ChEMBL document CHEMBL1201862, “PubChem BioAssay data set” (2004):
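Values below derive from 48-hour exposures of cells grown in 96-well plates, with endpoints linearly interpolated between the two concentrations bracketing the appropriate inhibition level. The concentration for 50% growth inhibition is given as GI50.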 Active and inactive are the calls of the source. Rule as the data show it: active = GI50 up to about 1.1 µM and inactive = higher.

What was measured:
Experiment in all cases: growth of human tumour cells (NCI), 48 h
SNB-75 = system: SNB-75
SNB-19 = system: SNB-19
SN12C = system: SN12C
UACC-257 = system: UACC-257
KM12 = system: KM12
COLO 205 = system: COLO 205
SF-268 = system: SF-268
UO-31 = system: UO-31
SK-OV-3 = system: SK-OV-3
UACC-62 = system: UACC-62
HOP-62 = system: HOP-62
SK-MEL-28 = system: SK-MEL-28
HCT-116 = system: HCT-116
NCI-H226 = system: NCI-H226
HL-60 = system: HL-60
LOX IMVI = system: LOX IMVI

Measured: GI50

CN(C)c1ccc(/C=C/C(=O)c2ccccc2)cc1Br
inactive: SNB-75 16.6 µM | SNB-19 18.8 µM | SN12C 21.1 µM | UACC-257 22.3 µM | KM12 15.8 µM | COLO 205 18.3 µM | SF-268 18.2 µM | UO-31 18.5 µM | SK-OV-3 33 µM | UACC-62 16.5 µM | HOP-62 48.5 µM | SK-MEL-28 13.7 µM

COC(=O)C1CC(OC(C)=O)C=C2C(=O)CCC21 (stereo not given)
inactive: SNB-75 15.2 µM | SNB-19 26.2 µM | SN12C 19.2 µM | UACC-257 16.8 µM | KM12 16.9 µM | HCT-116 16.3 µM | COLO 205 18.7 µM | SF-268 16.6 µM | UO-31 27.2 µM | NCI-H226 73.1 µM | SK-OV-3 27.1 µM | UACC-62 19.3 µM | HOP-62 25.4 µM | SK-MEL-28 17.1 µM | HL-60 16.1 µM

COc1cc(/C=N/c2nncs2)ccc1O
inactive: SNB-75 > 100 µM | SNB-19 > 100 µM | SN12C > 100 µM | UACC-257 > 100 µM | KM12 > 100 µM | HCT-116 > 100 µM | SF-268 > 100 µM | UO-31 > 100 µM | NCI-H226 > 100 µM | SK-OV-3 > 100 µM | UACC-62 > 100 µM | HOP-62 > 100 µM | SK-MEL-28 > 100 µM | HL-60 > 100 µM

CCC(=O)N1C(=O)OCC1C(C)C (stereo not given)
inactive: SNB-75 > 100 µM | SNB-19 > 100 µM | LOX IMVI > 100 µM | SN12C > 100 µM | UACC-257 > 100 µM | KM12 > 100 µM | HCT-116 > 100 µM | COLO 205 > 100 µM | SF-268 > 100 µM | UO-31 > 100 µM | SK-OV-3 > 100 µM | UACC-62 > 100 µM | HOP-62 > 100 µM | HL-60 > 100 µM

Cc1cc2c(=O)cc(-c3ccc(C(=O)O)cc3)oc2c(C(N)=O)c1C
inactive: SNB-75 28.9 µM | SNB-19 > 100 µM | LOX IMVI > 100 µM | SN12C > 100 µM | UACC-257 > 100 µM | KM12 > 100 µM | HCT-116 > 100 µM | COLO 205 > 100 µM | SF-268 > 100 µM | UO-31 > 100 µM | SK-OV-3 > 100 µM | UACC-62 > 100 µM | HOP-62 > 100 µM | SK-MEL-28 > 100 µM

COC(=O)c1c(OC)cccc1C(=O)O
inactive: SNB-75 > 100 µM | SNB-19 > 100 µM | SN12C > 100 µM | UACC-257 > 100 µM | KM12 > 100 µM | HCT-116 > 100 µM | COLO 205 > 100 µM | SF-268 > 100 µM | UO-31 > 100 µM | NCI-H226 > 100 µM | SK-OV-3 > 100 µM | UACC-62 > 100 µM | HOP-62 > 100 µM | HL-60 > 100 µM

CC1CC(=O)Nc2ccc(Cl)cc2N1C(=O)CN1CCC(CCCCN(C)C)CC1 (stereo not given)
inactive: SNB-19 > 100 µM | LOX IMVI > 100 µM | SN12C > 100 µM | UACC-257 > 100 µM | HCT-116 > 100 µM | COLO 205 > 100 µM | SF-268 > 100 µM | UO-31 > 100 µM | NCI-H226 > 100 µM | SK-OV-3 > 100 µM | UACC-62 > 100 µM | HOP-62 > 100 µM | SK-MEL-28 > 100 µM | HL-60 > 100 µM

COc1ccc2c3ccc4c(c3n(C)c2c1)C(=O)c1ccccc1C4=O
inactive: SNB-75 > 100 µM | SNB-19 > 100 µM | SN12C > 100 µM | UACC-257 > 100 µM | HCT-116 30.1 µM | COLO 205 75.2 µM | SF-268 56.6 µM | UO-31 > 100 µM | NCI-H226 > 100 µM | SK-OV-3 21.6 µM | UACC-62 > 100 µM | HOP-62 > 100 µM | SK-MEL-28 > 100 µM | HL-60 > 100 µM

O=C(c1cc(O)ccc1O)c1ccccc1C(Cl)(Cl)Cl
inactive: SNB-75 > 100 µM | SNB-19 > 100 µM | SN12C > 100 µM | UACC-257 39 µM | KM12 > 100 µM | HCT-116 > 100 µM | COLO 205 > 100 µM | SF-268 > 100 µM | UO-31 41.9 µM | NCI-H226 > 100 µM | SK-OV-3 > 100 µM | UACC-62 71.6 µM | HOP-62 > 100 µM | HL-60 28.6 µM

CC(C)c1ccc(C(c2ccc(OCC(=O)O)cc2)c2ccc(C(C)C)cc(=O)c2O)c(O)c(=O)c1
inactive: SNB-75 3.29 µM | SNB-19 5.89 µM | LOX IMVI 3.71 µM | SN12C 4.15 µM | UACC-257 5.6 µM | HCT-116 3.76 µM | COLO 205 3.14 µM | SK-OV-3 6.81 µM | UACC-62 3.55 µM | HOP-62 2.79 µM | SK-MEL-28 4.81 µM | HL-60 3.27 µM

O=S1(=O)OCCOS(=O)(=O)C1I
inactive: SNB-75 > 100 µM | SNB-19 77.4 µM | SN12C > 100 µM | UACC-257 > 100 µM | KM12 > 100 µM | HCT-116 > 100 µM | COLO 205 > 100 µM | SF-268 92.5 µM | UO-31 48.5 µM | NCI-H226 28.6 µM | SK-OV-3 > 100 µM | UACC-62 40.1 µM | HOP-62 > 100 µM | SK-MEL-28 > 100 µM | HL-60 53.2 µM

Cc1cc(O)c2c(c1)C(O)(c1ccc3c(c1O)C(=O)c1c(O)cc(C)cc1C3(O)C1OC(CO)C(O)C(O)C1O)c1cccc(O)c1C2=O (stereo not given)
inactive: SNB-75 14.1 µM | SNB-19 16.4 µM | LOX IMVI 11.4 µM | UACC-257 13.7 µM | KM12 11.5 µM | HCT-116 11.9 µM | SF-268 20.1 µM | UO-31 17.7 µM | SK-OV-3 17.6 µM | UACC-62 12.1 µM | HOP-62 15.3 µM | SK-MEL-28 15 µM | HL-60 3.09 µM

C[C@]12CC[C@H](O)CC1=CC[C@@H]1C2CC[C@]2(C)NC(=O)C(C#N)CC12 (stereo not given in full)
inactive: SNB-75 51.4 µM | UACC-257 > 100 µM | KM12 > 100 µM | HCT-116 > 100 µM | UO-31 > 100 µM | NCI-H226 > 100 µM | SK-OV-3 > 100 µM | UACC-62 15.7 µM | HOP-62 > 100 µM | SK-MEL-28 66.8 µM | HL-60 > 100 µM

Cc1ccc(-c2nc3ccccc3c(=O)n2NCC2(O)OCC(O)C(O)C2O)cc1 (stereo not given)
inactive: SNB-75 > 100 µM | SNB-19 > 100 µM | LOX IMVI > 100 µM | SN12C > 100 µM | UACC-257 > 100 µM | KM12 > 100 µM | HCT-116 > 100 µM | COLO 205 > 100 µM | SF-268 > 100 µM | UO-31 > 100 µM | SK-OV-3 > 100 µM | UACC-62 > 100 µM | SK-MEL-28 > 100 µM | HL-60 > 100 µM
